By pIC50 is commonly meant −log10 of the IC50, conventionally taken in molar units. A word on the pEC50: it is the negative decadic logarithm of the EC50, by convention in mol/L. Broadly, the inhibition in vivo is the percentage by which the read-out fell short of the control.

Test [1] addresses T1, Neuropeptide Y receptor type 2 (Homo sapiens, UniProt P49146).
T1 sequence (P49146 whole entry): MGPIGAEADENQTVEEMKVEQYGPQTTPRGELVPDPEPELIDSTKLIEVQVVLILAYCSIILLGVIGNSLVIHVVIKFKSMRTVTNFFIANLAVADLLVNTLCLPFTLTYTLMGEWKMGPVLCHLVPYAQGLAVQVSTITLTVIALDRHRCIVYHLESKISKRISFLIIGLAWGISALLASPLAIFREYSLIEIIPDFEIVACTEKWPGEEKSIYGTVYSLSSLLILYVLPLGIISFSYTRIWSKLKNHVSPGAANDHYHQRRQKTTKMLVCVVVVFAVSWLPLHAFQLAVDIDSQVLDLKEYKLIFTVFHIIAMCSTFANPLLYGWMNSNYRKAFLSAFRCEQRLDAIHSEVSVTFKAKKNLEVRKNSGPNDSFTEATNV
The test is described as follows: Displacement of [125I]peptide YY from human Y2 receptor expressed in CHO cell membranes after 60 mins by TopCount scintillation counting analysis. A general note: Loss of bound radioactivity is the signal in a displacement assay; it reports binding, not function.

Test [2] concerns the target T1, Neuropeptide Y receptor type 2. The test is described as follows: Agonist activity at human Y2 receptor expressed in CHO cell membranes after 120 mins by [35S]GTPgammaS binding assay. The format is functional.
For test [3], the system named is Mus musculus. Kind of test: Anorectic activity in C57BL/6J mouse assessed as inhibition of food intake at 1 mg/kg/day, sc administered by infusion as continuous dosing for 3 days relative to 1 mg/kg/day PYY (3 to 36 residues). The format is functional. The note with it: 72 h.

pEC50, pIC50: −log10 of the molar value. Where a SMILES comes first, the peptide text is derived from it. [ ]: non-standard residue; d: D form. Cha = N[C@@H](CC1CCCCC1)C(=O)O; Aib = CC(C)(N)C(=O)O

Molecule `CC(=O)N[C@@H](CO)C(=O)N1CCC[C@@H]1C(=O)N[C@@H](CCCNC(=N)N)C(=O)N[C@@H](Cc1cnc[nH]1)C(=O)N[C@@H](CC1CCCCC1)C(=O)N[C@@H](CC1CCCCC1)C(=O)N[C@@H](CC(N)=O)C(=O)N[C@@H](CCCCN)C(=O)NC(C)(C)C(=O)N[C@H](C(=O)N[C@@H](CCCNC(=N)N)C(=O)N[C@@H](CCC(N)=O)C(=O)N[C@@H](CCCNC(=N)N)C(=O)N[C@@H](CC1CCCCC1)C(N)=O)[C@@H](C)O` gave a pIC50 in test [1] of 9.26. The same molecule had a pEC50 in test [2] of 9.70. Further, the inhibition in vivo at 1 mg/kg/day in test [3] is 79%.

Consider `CC(=O)N[C@@H](CO)C(=O)N1CCC[C@@H]1C(=O)N[C@@H](CCCNC(=N)N)C(=O)N[C@@H](Cc1cnc[nH]1)C(=O)NC(C)(C)C(=O)N[C@@H](CC1CCCCC1)C(=O)N[C@@H](CC(N)=O)C(=O)N[C@@H](CC(C)C)C(=O)NC(C)(C)C(=O)N[C@H](C(=O)N[C@@H](CCCNC(=N)N)C(=O)N[C@@H](CCC(N)=O)C(=O)N[C@@H](CCCNC(=N)N)C(=O)N[C@@H](CC1CCCCC1)C(N)=O)[C@@H](C)O`, for which the pIC50 in test [1] was 8.59. Further, the pEC50 in test [2] was 8.77.

In turn, `CC(=O)N[C@@H](CO)C(=O)N1CCC[C@@H]1C(=O)N[C@@H](CCCNC(=N)N)C(=O)N[C@@H](Cc1cnc[nH]1)C(=O)N[C@@H](CC1CCCCC1)C(=O)N[C@@H](CC1CCCCC1)C(=O)N[C@@H](CC(N)=O)C(=O)N[C@@H](CO)C(=O)NC(C)(C)C(=O)N[C@H](C(=O)N[C@@H](CCCNC(=N)N)C(=O)N[C@@H](CCC(N)=O)C(=O)N[C@@H](CCCNC(=N)N)C(=O)N[C@@H](CC1CCCCC1)C(N)=O)[C@@H](C)O` gave a pIC50 in test [1] of 8.64. The molecule also had a pEC50 in test [2] of 9.22.

In turn, `CCCC[C@H](NC(=O)[C@H](CC(N)=O)NC(=O)[C@H](CC1CCCCC1)NC(=O)[C@H](CC1CCCCC1)NC(=O)[C@H](Cc1cnc[nH]1)NC(=O)[C@H](CCCNC(=N)N)NC(=O)[C@H]1CCCN1C(=O)[C@H](CO)NC(C)=O)C(=O)NC(C)(C)C(=O)N[C@H](C(=O)N[C@@H](CCCNC(=N)N)C(=O)N[C@@H](CCC(N)=O)C(=O)N[C@@H](CCCNC(=N)N)C(=O)N[C@@H](CC1CCCCC1)C(N)=O)[C@@H](C)O` showed a pIC50 in test [1] of 8.89. The molecule further had a pEC50 in test [2] of 9.68.

In turn, `CC(=O)N[C@@H](CO)C(=O)N1CCC[C@@H]1C(=O)N[C@@H](CCCNC(=N)N)C(=O)N[C@@H](CCC(N)=O)C(=O)N[C@@H](CC1CCCCC1)C(=O)N[C@@H](CC1CCCCC1)C(=O)N[C@@H](CC(N)=O)C(=O)N[C@@H](CC(C)C)C(=O)NC(C)(C)C(=O)N[C@H](C(=O)N[C@@H](CCCNC(=N)N)C(=O)N[C@@H](CCC(N)=O)C(=O)N[C@@H](CCCNC(=N)N)C(=O)N[C@@H](CC1CCCCC1)C(N)=O)[C@@H](C)O` showed a pIC50 in test [1] of 8.96. In test [2], this molecule showed a pEC50 of 9.38. In test [3], the inhibition in vivo at 1 mg/kg/day turned out to be 55%.

In turn, `CC(=O)N[C@@H](CO)C(=O)N1CCC[C@@H]1C(=O)N[C@@H](CCCNC(=N)N)C(=O)N[C@@H](Cc1ccncc1)C(=O)N[C@@H](CC1CCCCC1)C(=O)N[C@@H](CC1CCCCC1)C(=O)N[C@@H](CC(N)=O)C(=O)N[C@@H](CC(C)C)C(=O)NC(C)(C)C(=O)N[C@H](C(=O)N[C@@H](CCCNC(=N)N)C(=O)N[C@@H](CCC(N)=O)C(=O)N[C@@H](CCCNC(=N)N)C(=O)N[C@@H](CC1CCCCC1)C(N)=O)[C@@H](C)O` had a pIC50 in test [1] of 9.31. In addition, the pEC50 in test [2] was 9.72. In addition, the inhibition in vivo at 1 mg/kg/day in test [3] stood at 72%.

Molecule `CC(=O)N[C@@H](CO)C(=O)N1CCC[C@@H]1C(=O)N[C@@H](CCCNC(=N)N)C(=O)N[C@@H](Cc1cnc[nH]1)C(=O)N[C@@H](CC1CCCCC1)C(=O)N[C@@H](CC1CCCCC1)C(=O)N[C@@H](CC(N)=O)C(=O)N[C@@H](CCCN)C(=O)NC(C)(C)C(=O)N[C@H](C(=O)N[C@@H](CCCNC(=N)N)C(=O)N[C@@H](CCC(N)=O)C(=O)N[C@@H](CCCNC(=N)N)C(=O)N[C@@H](CC1CCCCC1)C(N)=O)[C@@H](C)O` had a pIC50 in test [1] of 8.92. In test [2], this molecule gave a pEC50 of 10.17. In addition, the inhibition in vivo at 1 mg/kg/day in test [3] came to 22%.

Consider `CC(=O)N[C@@H](CO)C(=O)N1CCC[C@@H]1C(=O)N[C@@H](CCCNC(=N)N)C(=O)N[C@@H](Cc1cnc[nH]1)C(=O)N[C@@H](CC1CCCCC1)C(=O)N[C@@](C)(CC(C)C)C(=O)N[C@@H](CC(N)=O)C(=O)N[C@@H](CC(C)C)C(=O)NC(C)(C)C(=O)N[C@H](C(=O)N[C@@H](CCCNC(=N)N)C(=O)N[C@@H](CCC(N)=O)C(=O)N[C@@H](CCCNC(=N)N)C(=O)N[C@@H](CC1CCCCC1)C(N)=O)[C@@H](C)O`, for which the pIC50 in test [1] is 9.03. In test [2], the pEC50 is 9.39. Besides, the inhibition in vivo at 1 mg/kg/day in test [3] turned out to be 59%.

For the molecule `CC(=O)N[C@@H](CO)C(=O)N1CCC[C@@H]1C(=O)N[C@@H](CCCNC(=N)N)C(=O)N[C@@H](Cc1cnc[nH]1)C(=O)N[C@@H](CC1CCCCC1)C(=O)N[C@@H](CC1CCCCC1)C(=O)N[C@@H](CC(N)=O)C(=O)N[C@@H](CC(C)C)C(=O)NC(C)(C)C(=O)N[C@H](C(=O)N[C@@H](CCCNC(=N)N)C(=O)N[C@@H](CCC(N)=O)C(=O)N[C@@H](CCCNC(=N)N)C(=O)N[C@@H](CC1CCCCC1)C(N)=O)[C@@H](C)O` (Ac-S[dP]RH[Cha][Cha]NL[Aib]TRQR[Cha]-NH2), the pIC50 in test [1] is 8.82. The molecule further had a pEC50 in test [2] of 9.21. The inhibition in vivo at 1 mg/kg/day in test [3] is 33%.

In the case of `CC(=O)N[C@@H](CO)C(=O)N1CCC[C@@H]1C(=O)N[C@@H](CCCNC(=N)N)C(=O)N[C@@H](Cc1cnc[nH]1)C(=O)N[C@@H](Cc1cnc[nH]1)C(=O)N[C@@H](CC1CCCCC1)C(=O)N[C@@H](CC(N)=O)C(=O)N[C@@H](CC(C)C)C(=O)NC(C)(C)C(=O)N[C@H](C(=O)N[C@@H](CCCNC(=N)N)C(=O)N[C@@H](CCC(N)=O)C(=O)N[C@@H](CCCNC(=N)N)C(=O)N[C@@H](CC1CCCCC1)C(N)=O)[C@@H](C)O`, in test [1], the pIC50 is 7.96. In addition, the pEC50 in test [2] is 8.42.

On to `CC(=O)N[C@@H](CO)C(=O)N1CCC[C@@H]1C(=O)N[C@@H](CCCNC(=N)N)C(=O)N[C@@H](Cc1cnc[nH]1)C(=O)N[C@@H](Cc1ccncc1)C(=O)N[C@@H](CC1CCCCC1)C(=O)N[C@@H](CC(N)=O)C(=O)N[C@@H](CC(C)C)C(=O)NC(C)(C)C(=O)N[C@H](C(=O)N[C@@H](CCCNC(=N)N)C(=O)N[C@@H](CCC(N)=O)C(=O)N[C@@H](CCCNC(=N)N)C(=O)N[C@@H](CC1CCCCC1)C(N)=O)[C@@H](C)O`, for which the pIC50 in test [1] was 8.22. In addition, the pEC50 in test [2] was 8.74.

In test [1], `CC(=O)N[C@@H](CO)C(=O)N1CCC[C@@H]1C(=O)N[C@@H](CCCNC(=N)N)C(=O)N[C@@H](Cc1cnc[nH]1)C(=O)N[C@@H](CC1CCCCC1)C(=O)NC(C)(C)C(=O)N[C@@H](CC(N)=O)C(=O)N[C@@H](CC(C)C)C(=O)NC(C)(C)C(=O)N[C@H](C(=O)N[C@@H](CCCNC(=N)N)C(=O)N[C@@H](CCC(N)=O)C(=O)N[C@@H](CCCNC(=N)N)C(=O)N[C@@H](CC1CCCCC1)C(N)=O)[C@@H](C)O` gave a pIC50 of 8.85. In addition, the pEC50 in test [2] is 9.18. In addition, the inhibition in vivo at 1 mg/kg/day in test [3] came to 59%.

On to `CC(=O)N[C@@H](CO)C(=O)N1CCC[C@@H]1C(=O)N[C@@H](CCCNC(=N)N)C(=O)N[C@@H](Cc1cnc[nH]1)C(=O)N[C@@H](CC1CCCCC1)C(=O)N[C@@H](Cc1cnc[nH]1)C(=O)N[C@@H](CC(N)=O)C(=O)N[C@@H](CC(C)C)C(=O)NC(C)(C)C(=O)N[C@H](C(=O)N[C@@H](CCCNC(=N)N)C(=O)N[C@@H](CCC(N)=O)C(=O)N[C@@H](CCCNC(=N)N)C(=O)N[C@@H](CC1CCCCC1)C(N)=O)[C@@H](C)O`, for which the pIC50 in test [1] is 8.55. Besides, in test [2], the pEC50 was 9.00.

`CC(=O)N[C@@H](CO)C(=O)N1CCC[C@@H]1C(=O)N[C@@H](CCCNC(=N)N)C(=O)N[C@@H](Cc1cnc[nH]1)C(=O)N[C@@H](Cc1ccc(O)cc1)C(=O)N[C@@H](CC1CCCCC1)C(=O)N[C@@H](CC(N)=O)C(=O)N[C@@H](CC(C)C)C(=O)NC(C)(C)C(=O)N[C@H](C(=O)N[C@@H](CCCNC(=N)N)C(=O)N[C@@H](CCC(N)=O)C(=O)N[C@@H](CCCNC(=N)N)C(=O)N[C@@H](CC1CCCCC1)C(N)=O)[C@@H](C)O` had a pIC50 in test [1] of 8.28. The same molecule had a pEC50 in test [2] of 8.60.

With `CC(=O)N[C@@H](CO)C(=O)N1CCC[C@@H]1C(=O)N[C@@H](CCCNC(=N)N)C(=O)N[C@@H](Cc1cnc[nH]1)C(=O)N[C@@H](CCC(N)=O)C(=O)N[C@@H](CC1CCCCC1)C(=O)N[C@@H](CC(N)=O)C(=O)N[C@@H](CC(C)C)C(=O)NC(C)(C)C(=O)N[C@H](C(=O)N[C@@H](CCCNC(=N)N)C(=O)N[C@@H](CCC(N)=O)C(=O)N[C@@H](CCCNC(=N)N)C(=O)N[C@@H](CC1CCCCC1)C(N)=O)[C@@H](C)O`, the pIC50 in test [1] was 8.06. Also, the pEC50 in test [2] was 8.36.

Regarding `CC(=O)N[C@@H](CO)C(=O)N1CCC[C@@H]1C(=O)N[C@@H](CCCNC(=N)N)C(=O)N[C@@H](Cc1cnc[nH]1)C(=O)N[C@@H](CC1CCCCC1)C(=O)N[C@@H](CC1CCCCC1)C(=O)N[C@@H](CC(N)=O)C(=O)N[C@@H](Cc1ccncc1)C(=O)NC(C)(C)C(=O)N[C@H](C(=O)N[C@@H](CCCNC(=N)N)C(=O)N[C@@H](CCC(N)=O)C(=O)N[C@@H](CCCNC(=N)N)C(=O)N[C@@H](CC1CCCCC1)C(N)=O)[C@@H](C)O`, in test [1], the pIC50 was 8.52. In test [2], this molecule gave a pEC50 of 9.32.

(Values after ChEMBL document CHEMBL4052740, “Potent antiobesity effect of a short-length peptide YY-analogue continuously administered in mice” (Bioorg Med Chem Lett, 2017).)
